The values below come from ChEMBL document CHEMBL1201862, “PubChem BioAssay data set” (2004).

Test systems include UO-31; ACHN; HT-29; T47D; HCT-116; K562; A498; SK-OV-3; RXF 393; OVCAR-4; NCI-H522; SW-620; SN12C; HCT-15; CCRF-CEM; SK-MEL-28; NCI/ADR-RES; NCI-H226; EKVX; LOX IMVI.
Holding throughout (assay): NCI anticancer screen, dose series, 48 h

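Following 48 hours of exposure in 96-well plates, responses at five concentrations were used to interpolate endpoints linearly. GI50 is the concentration that inhibits growth by half.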 Activity calls are given as the source filed them. No stated cut-off is given here; in the data, active = GI50 up to about 1.1 µM and inactive = higher.

Consider `O=C1CC(=O)NC(NN2C(=O)CSC2c2ccccc2)=N1` (configuration not stated), for which the GI50 in the experiment with UO-31, in the experiment with ACHN, with HT-29, in the experiment with T47D, in the experiment with HCT-116 and in the experiment with K562 was > 100 µM (inactive) each time. In addition, the GI50 in the experiment on A498, in the experiment with SK-OV-3, with RXF 393, with OVCAR-4, in the experiment on NCI-H522 and with SW-620 was > 100 µM (inactive) throughout. Further, the GI50 in the experiment on SN12C was > 100 µM (inactive); in the experiment with HCT-15, more than 100 µM; in the experiment with CCRF-CEM, > 100 µM (inactive); with SK-MEL-28 it was > 100 µM (inactive); in the experiment on NCI/ADR-RES it was > 100 µM (inactive); in the experiment with NCI-H226, > 100 µM (inactive).
For `COc1ccc(CCc2ccc(O)c(C(=O)O)c2)cc1OC`, the GI50 was > 100 µM (inactive) in the experiment with UO-31; > 100 µM (inactive) with ACHN; > 100 µM (inactive) in the experiment with HT-29; > 100 µM (inactive) in the experiment with T47D; > 100 µM (inactive) with EKVX; 65.5 µM (inactive) in the experiment with HCT-116. In addition, the GI50 was 59.7 µM (inactive) with K562; > 100 µM (inactive) in the experiment with SK-OV-3; 7.5 µM (inactive) in the experiment on LOX IMVI; 63.5 µM (inactive) in the experiment with RXF 393; > 100 µM (inactive) in the experiment on OVCAR-4; > 100 µM (inactive) in the experiment with NCI-H522. Moreover, the GI50 in the experiment with SW-620 is > 10 µM (inactive); in the experiment with SN12C it was > 100 µM (inactive); in the experiment on HCT-15, 84.1 µM; in the experiment with CCRF-CEM, 50.7 µM (inactive); with SK-MEL-28, > 100 µM (inactive); with NCI/ADR-RES it was > 100 µM (inactive). For the same molecule, the GI50 in the experiment on NCI-H226 was > 100 µM (inactive).
`CCOC(=O)CCC(NC(=O)Cc1ccc(Nc2nc3cc(F)c(F)cc3nc2C(=O)OCC)cc1)C(=O)OCC` (configuration not stated): the GI50 with UO-31 is > 100 µM (inactive); in the experiment with ACHN, > 100 µM (inactive); in the experiment with HT-29, > 100 µM (inactive); in the experiment with T47D it was 25.2 µM (inactive); in the experiment with EKVX, > 100 µM (inactive); in the experiment on HCT-116, 83.9 µM (inactive). Also, the GI50 was 37.2 µM (inactive) in the experiment on K562; > 100 µM (inactive) with A498; > 100 µM (inactive) with SK-OV-3; 44.4 µM (inactive) in the experiment with LOX IMVI; > 100 µM (inactive) with OVCAR-4; 38.2 µM (inactive) in the experiment with NCI-H522. Moreover, the GI50 was 73.6 µM (inactive) with SW-620; 69.2 µM (inactive) with SN12C; more than 100 µM with HCT-15; 20.8 µM (inactive) in the experiment with CCRF-CEM; > 100 µM (inactive) with SK-MEL-28; > 100 µM (inactive) in the experiment with NCI/ADR-RES. Besides, the GI50 in the experiment on NCI-H226 is > 100 µM (inactive).
With `COCC1OC(N2C(=O)NC(=O)[C@@H]3C=C4CCCCC4=C[C@@H]32)C(OC)C1OC` (some centres not stated), the GI50 with UO-31 is 98.9 µM (inactive); in the experiment with ACHN it was > 100 µM (inactive); in the experiment on HT-29, > 100 µM (inactive); in the experiment with T47D it was > 100 µM (inactive); in the experiment with EKVX, > 100 µM (inactive); in the experiment with HCT-116 it was > 100 µM (inactive). Also, the GI50 in the experiment with K562, with A498, in the experiment with SK-OV-3, with LOX IMVI, in the experiment with OVCAR-4 and with NCI-H522 was > 100 µM (inactive) each time. Besides, the GI50 was > 100 µM (inactive) with SW-620; > 100 µM (inactive) in the experiment on SN12C; more than 100 µM in the experiment on HCT-15; > 100 µM (inactive) with SK-MEL-28; > 100 µM (inactive) with NCI/ADR-RES; > 100 µM (inactive) in the experiment on NCI-H226.
`C[C@]12CC[C@H](O)C=C1CC[C@@H]1[C@@H]2CC[C@]2(C)C(=N/O)/C(=C/c3ccncc3)C[C@@H]12`: the GI50 in the experiment on UO-31 is 3.68 µM (inactive); with ACHN, 8.43 µM (inactive); in the experiment on HT-29 it was 4.04 µM (inactive); in the experiment with T47D it was 5.38 µM (inactive); with EKVX, 16.4 µM (inactive); in the experiment with HCT-116 it was 5 µM (inactive). Also, the GI50 was 5.13 µM (inactive) with K562; 15.6 µM (inactive) in the experiment with SK-OV-3; 11.5 µM (inactive) in the experiment on LOX IMVI; 5.87 µM (inactive) with RXF 393; 10.1 µM (inactive) with OVCAR-4; 9.35 µM (inactive) in the experiment on NCI-H522. In addition, the GI50 in the experiment on SW-620 was 23 µM (inactive); with SN12C, 12.1 µM (inactive); in the experiment with HCT-15, 5.19 µM; with CCRF-CEM, 7.96 µM (inactive); in the experiment on SK-MEL-28, 19.7 µM (inactive); with NCI/ADR-RES, 17.5 µM (inactive). In the experiment on NCI-H226, the GI50 was 10.2 µM (inactive).
On to `CCOC(=O)c1ccc(C(=O)OCC)n1-c1cc2cc(c1)CSCc1cc(cc(-n3c(C(=O)OCC)ccc3C(=O)OCC)c1)CSC2`, for which the GI50 in the experiment with UO-31, in the experiment with ACHN, with HT-29, in the experiment on T47D, with EKVX and in the experiment with HCT-116 was > 10 µM (inactive) in each case. Further, the GI50 in the experiment with K562, with SK-OV-3, in the experiment with LOX IMVI, with RXF 393, with OVCAR-4 and in the experiment with NCI-H522 was > 10 µM (inactive) each time. The GI50 in the experiment with SW-620 is > 10 µM (inactive); in the experiment with SN12C, > 10 µM (inactive); in the experiment on HCT-15 it was more than 10 µM; in the experiment on CCRF-CEM, > 10 µM (inactive); in the experiment with SK-MEL-28, > 10 µM (inactive); in the experiment on NCI/ADR-RES, > 10 µM (inactive). Also, the GI50 in the experiment on NCI-H226 is > 10 µM (inactive).
For `CCc1nc2c(n1CC)C(=O)c1ccccc1C2=O`, the GI50 is 39 µM (inactive) in the experiment on ACHN; 24.9 µM (inactive) in the experiment with HT-29; 18.3 µM (inactive) with T47D; 91.6 µM (inactive) in the experiment with EKVX; > 10 µM (inactive) with HCT-116; 44.5 µM (inactive) in the experiment on K562. Also, the GI50 in the experiment with RXF 393 is 19.8 µM (inactive); in the experiment with OVCAR-4, 34.9 µM (inactive); in the experiment on NCI-H522, 31.6 µM (inactive); in the experiment with SW-620, 26.7 µM (inactive); in the experiment with SN12C, 27.8 µM (inactive); in the experiment with HCT-15 it was 38.3 µM. Also, the GI50 in the experiment on CCRF-CEM is 45.7 µM (inactive); with SK-MEL-28, 56.1 µM (inactive); in the experiment with NCI/ADR-RES, 31.2 µM (inactive); in the experiment with NCI-H226 it was 28.6 µM (inactive).
`Clc1ccc(/N=C/c2cc3cc(Br)ccc3nc2Cl)cc1`: the GI50 is 36.8 µM (inactive) in the experiment on UO-31; 16 µM (inactive) with HT-29; > 50 µM (inactive) in the experiment on T47D; 29.6 µM (inactive) with EKVX; 12 µM (inactive) in the experiment with HCT-116; 4.34 µM (inactive) with K562. Also, the GI50 was 6.18 µM (inactive) in the experiment on LOX IMVI; > 50 µM (inactive) with RXF 393; 5.12 µM (inactive) in the experiment with OVCAR-4; 15.1 µM (inactive) in the experiment with NCI-H522; 14.2 µM (inactive) with SW-620; > 50 µM (inactive) in the experiment with SN12C. Also, the GI50 was 14.2 µM with HCT-15; 9.08 µM (inactive) with CCRF-CEM; 46.5 µM (inactive) with SK-MEL-28; 45.1 µM (inactive) in the experiment on NCI/ADR-RES; > 50 µM (inactive) in the experiment on NCI-H226.
For the molecule `COC(=O)C(C)(C)[C@@H]1OC(=O)N(S(=O)(=O)c2c(C)cc(C)cc2C)[C@H]1C(C)C`, the GI50 in the experiment with UO-31 was > 100 µM (inactive); in the experiment with ACHN, > 100 µM (inactive); in the experiment on HT-29, 65.8 µM (inactive); with T47D, 63.5 µM (inactive); in the experiment on EKVX, > 100 µM (inactive); in the experiment on HCT-116, 52.8 µM (inactive). The GI50 in the experiment on K562 was > 100 µM (inactive); in the experiment with SK-OV-3 it was > 100 µM (inactive); in the experiment on LOX IMVI, 78 µM (inactive); with RXF 393 it was > 100 µM (inactive); in the experiment on OVCAR-4, 98.2 µM (inactive); in the experiment on NCI-H522, > 100 µM (inactive). Besides, the GI50 in the experiment with SW-620 was 82.2 µM (inactive); in the experiment with SN12C, > 100 µM (inactive); in the experiment on HCT-15 it was more than 100 µM; in the experiment on CCRF-CEM, 75.9 µM (inactive); in the experiment on SK-MEL-28, > 100 µM (inactive); with NCI/ADR-RES it was > 100 µM (inactive). The GI50 with NCI-H226 is 27.4 µM (inactive).
For `Cc1oc2c(Cl)cc(O)c(Cl)c2c2cccc1-2`, the GI50 is 36.4 µM (inactive) in the experiment on UO-31; 40.6 µM (inactive) in the experiment on ACHN; 35.2 µM (inactive) with HT-29; 1.96 µM (inactive) with T47D; 18.7 µM (inactive) in the experiment on EKVX; 16.6 µM (inactive) in the experiment with HCT-116. The GI50 is 12.6 µM (inactive) with K562; 42 µM (inactive) in the experiment with A498; > 100 µM (inactive) in the experiment on SK-OV-3; 16.9 µM (inactive) with LOX IMVI; 12 µM (inactive) in the experiment with OVCAR-4; 26.4 µM (inactive) with NCI-H522. Further, the GI50 was 32.5 µM (inactive) in the experiment with SW-620; 25.9 µM (inactive) with SN12C; 21.5 µM with HCT-15; 14.1 µM (inactive) in the experiment on CCRF-CEM; 14.8 µM (inactive) in the experiment with SK-MEL-28; 28.8 µM (inactive) in the experiment on NCI/ADR-RES. In the experiment with NCI-H226, the GI50 is 14.2 µM (inactive).
As for `Cc1cc2nnn(C3CCCO3)c2cc1C` (configuration not stated), the GI50 in the experiment with HT-29, with T47D, with EKVX, in the experiment with HCT-116, in the experiment on K562 and with A498 was > 100 µM (inactive) each time. Moreover, the GI50 is > 100 µM (inactive) in the experiment with SK-OV-3; > 100 µM (inactive) in the experiment on RXF 393; > 100 µM (inactive) in the experiment with NCI-H522; > 100 µM (inactive) with SN12C; more than 100 µM with HCT-15; > 100 µM (inactive) in the experiment on CCRF-CEM. The GI50 in the experiment with NCI/ADR-RES and in the experiment with NCI-H226 was > 100 µM (inactive) in each case.
